In article PMC8092876, “A Leucyl-tRNA Synthetase Inhibitor with Broad-Spectrum Antimycobacterial Activity” (Antimicrobial Agents and Chemotherapy, 2021):
≈ marks a conversion by molar mass, not a printed value. Read-outs that look alike come from different tables or passages of the source.

Legend:
[1] = tested on: M. tuberculosis H37Rv ATCC 27294; assay: MIC assay in 96-well plate format; assay type: cell-based; conditions: Mycobacterium tuberculosis, 168 h
[2] = tested on: M. abscessus subsp. bolletii CCUG 50184T; assay: MIC assay in 96-well plate format; assay type: cell-based; conditions: Mycobacteroides abscessus, culture collection reference strain
[3] = tested on: M. abscessus subsp. abscessus M9; assay: MIC assay in 96-well plate format; assay type: cell-based; conditions: Mycobacteroides abscessus; M. abscessus subsp. abscessus M9, clinical isolate
[4] = tested on: M. abscessus subsp. abscessus M199; assay: MIC assay in 96-well plate format; assay type: cell-based; conditions: Mycobacteroides abscessus; M. abscessus subsp. abscessus M199, clinical isolate
[5] = tested on: M. abscessus subsp. abscessus M337; assay: MIC assay in 96-well plate format; assay type: cell-based; conditions: Mycobacteroides abscessus; M. abscessus subsp. abscessus M337, clinical isolate
[6] = tested on: M. abscessus subsp. abscessus M422; assay: MIC assay in 96-well plate format; assay type: cell-based; conditions: Mycobacteroides abscessus; M. abscessus subsp. abscessus M422, clinical isolate
[7] = tested on: M. abscessus subsp. bolletii M506; assay: MIC assay in 96-well plate format; assay type: cell-based; conditions: Mycobacteroides abscessus; M. abscessus subsp. bolletii M506, clinical isolate
M. chimaera CCUG 50989T = assay: MIC assay in 96-well plate format; assay type: cell-based; conditions: CCUG50989T, culture collection reference strain
M. abscessus Bamboo = assay type: cell-based
[8] = Kinetic aqueous solubility assay (CLND); assay type: physicochemical; conditions: aqueous buffer, kinetic from dmso stock, pH 7.4 phosphate-buffered saline
Procedure: The aqueous solubility of test compounds was measured using an in-house method utilizing quantification via chemiluminescent nitrogen detection (CLND): 5 μl of 10 mM DMSO stock solution was diluted to 100 μl with pH 7.4 phosphate-buffered saline, equilibrated for 1 h at room temperature, and filtered through Millipore Multiscreen HTS-PCF filter plates (MSSL BPC). The eluent is quantified by a suitably calibrated flow injection chemiluminescent nitrogen detection (CLND or CAD). This assay has a dynamic range between the lower detection limit of 1 and 500 μM, governed by the protocol’s 1:20 dilution into pH 7.4 phosphate buffer solution from nominal 10 mM DMSO stock.

ChromlogD assay = assay type: physicochemical; conditions: reversed phase HPLC column (Gemini NX C18), pH 7.4
Procedure: The Chromatographic Hydrophobicity Index (CHI) values are measured using reversed phase high-performance liquid chromatography (HPLC) column (50 by 2 mm […] Gemini NX C18, Phenomenex, UK) with fast acetonitrile gradient at starting mobile phase of pHs 2, 7.4, and 10.5. CHI values are derived directly from the gradient retention times by using a calibration line obtained for standard compounds. The CHI value approximates to the volume percent organic concentration when the compound elutes. CHI is linearly transformed into ChromlogD by least-square fitting of experimental CHI values to calculated ClogP values for over 20,000 research compounds using the following formula: ChromlogD = (0.0857 × CHI) − 2.00. The average error of the assay is ±3 CHI unit or ±0.25 ChromlogD.

[9] = AMP (artificial membrane permeability) assay; assay type: in vitro ADME; conditions: PAMPA, pH 7.4
Procedure: An 8% L-α-phosphatidylcholine (EPC) in 1% cholesterol decane solution and a 1.8% EPC in cholesterol decane solution were prepared. The lipid solution was then aliquoted into 4 ml capped vials, sealed with parafilm, and stored in a −20°C freezer. The lipid solution was then transferred from 4 ml vial into a 96-well half area plate (130 μl/well) for daily assay usage. An additional 50 mM phosphate buffer with 0.5% encapsin (pH 7.4) was prepared. The assay was run by the Biomek FX and Biomek software. The assay procedure is written under the Biomek software. For one batch assay, it can test two 96-well sample plates with at least one standard on each sample plate. The total assay time was about 4 h. A total of 3.5 μl of lipid solution was added to the filler plate and shaken for 12 s, 250 μl of buffer was added to the donor side, and 100 μl of buffer was added to the receiver side. The assay plate was shaken for 45 min before adding the compounds. The test compounds (2.5 μl) were added to the donor side. The assay was run as replicates: assay plates 1 and 2 tested sample plate 1, and assay plates 3 and 4 tested sample plate 2. The assay plates were then incubated and shaken for 3 h at room temperature. […] Compound concentration was measured by HPLC at different time points.

[10] = Mouse pharmacokinetics, oral administration; assay type: in vivo; conditions: for AUC: female, C57BL/6, whole blood
Procedure: For pharmacokinetic studies, CD-1 male mice (22 to 25 g) were used for intravenous route and C57BL/6 female mice (18 to 20 g) were used for oral route. All animal studies were ethically reviewed and carried out in accordance with European Directive 2010/63/EU and the GSK policy on the care, welfare, and treatment of animals.
EC/11770 was administered by intravenous route at 1 mg/kg single dose in saline and by oral gavage at 1 mg/kg and 10 mg/kg single doses in 1% methyl cellulose (1% MC). Aliquots of 20 μl of blood were taken from the lateral tail vein by puncture from each mouse (n = 3 per route and dose) at 5, 15, and 30 min 1, 2, 4, 6, 8, and 24 h postdose for intravenous route and at 15, 30, and 45 min 1, 2, 4, 6, 8, and 24 h postdose for oral route. The blood aliquots were mixed with 40 μl of water and stored at −80°C prior to analysis. The samples were processed by protein precipitation: aliquots of 20 μl were mixed with acetonitrile/methanol (80:20 vol/vol) and then filtered in 0.45 μm well-plates (hydrophobic polytetrafluorethylene [PTFE], Millipore). The filtrates were analyzed by UPLC-MS/MS for the establishment of compound concentration. The ultraperformance liquid chromatography (UPLC)-MS/MS system included a UPLC Acquity (Waters) and an API4000 mass spec. (AB Sciex). A volume of 7.5 μl of sample was injected into the system, with an UPLC solvent gradient of 2 min and with a positive multiple reaction monitoring (MRM) mass detection mode.
Pharmacokinetic analysis was performed by noncompartmental data analysis (NCA) with Phoenix WinNonlin 6.3 (Pharsight, Certara L.P), and supplementary analysis was performed with GraphPad Prism 6 (GraphPad Software, Inc.).

[11] = mouse, oral 10 mg/kg, average (SD)

SMILES: CC(C)(O)COc1ccc(Br)c2c1B(O)O[C@@H]2CN [EC/11770]
- MIC [1]: 0.56 µM (≈ 0.185 µg/mL)
- MIC [2]: 1.3 µM (≈ 0.429 µg/mL)
- MIC [3]: 0.49 µM (≈ 0.162 µg/mL)
- MIC [4]: 0.93 µM (≈ 0.307 µg/mL)
- MIC [5]: 0.5 µM (≈ 0.165 µg/mL)
- MIC [6]: 0.33 µM (≈ 0.109 µg/mL)
- MIC [7]: 0.48 µM (≈ 0.158 µg/mL)
- MIC (M. chimaera CCUG 50989T): 1.7 µM (≈ 0.561 µg/mL)
- frequency of resistance (M. abscessus Bamboo): 3.9 × 10^−8 /CFU
- solubility at 1 h [8]: 349 µM (≈ 115 µg/mL)
- chromatographic logD (ChromlogD assay): 0.97
- Papp at 3 h [9]: 27.5 ×10⁻⁶ cm/s
- AUC ([10]; mouse, oral 1 mg/kg, average (SD), read-out: AUC0–24_1 mg/kg): 3560 ng·h/mL
- AUC ([10]; mouse, oral 10 mg/kg, average (SD), read-out: AUC0–24_10 mg/kg): 40500 ng·h/mL
- Cmax_1 mg/kg ([10]; mouse (C57BL/6 female), oral 1 mg/kg, average (SD)): 341 (51) ng/ml
- %F_1 mg/kg ([10]; mouse, oral 1 mg/kg): 100%
- DNAUC0–24_1 mg/kg ([10]; mouse, oral 1 mg/kg, average (SD)): 3,556 (179) ng h/ml per mg/kg
- Tmax_1 mg/kg ([10]; mouse, oral 1 mg/kg, range of values): 1.0−2.0 h
- %F_10 mg/kg ([10]; mouse, oral 10 mg/kg): 100%
- time above M. abscessus biofilm MIC ([10]; mouse, oral 10 mg/kg): approximately 60%
- time above MIC in M. abscessus planktonic cultures ([10]; mouse, oral 10 mg/kg): 100%
- Cmax_10 mg/kg [10, 11]: 4,393 (1,260) ng/ml
- DNAUC0–24_10 mg/kg [10, 11]: 4,053 (908) ng h/ml per mg/kg
- Tmax_10 mg/kg ([10]; mouse, oral 10 mg/kg, range of values): 0.75−2.0 h
